The source of these data is ChEMBL document CHEMBL1143474, “Synthesis and pharmacological evaluation of Tic-hydantoin derivatives as selective sigma1 ligands. Part 1” (Bioorg Med Chem Lett, 2005).

For one assay, the target named is Sigma 2 receptor. Put plainly: Inhibitory concentration against opioid receptor sigma 2 of rat cerebral cortex using [3H]DTG upon incubation for 120 minutes at 22 degree C. Type of assay: tissue-based.
Assay [1] has as its target Sigma non-opioid intracellular receptor 1 (Cavia porcellus) (UniProt Q60492). The assay can be described thus: Inhibitory concentration against opioid receptor sigma 1 of guinea pig cerebral cortex using [3H](+)-pentazocine upon incubation for 150 minutes at 22 degree C.

Sequence of Sigma non-opioid intracellular receptor 1 (Cavia porcellus) (Q60492 whole entry, looked up): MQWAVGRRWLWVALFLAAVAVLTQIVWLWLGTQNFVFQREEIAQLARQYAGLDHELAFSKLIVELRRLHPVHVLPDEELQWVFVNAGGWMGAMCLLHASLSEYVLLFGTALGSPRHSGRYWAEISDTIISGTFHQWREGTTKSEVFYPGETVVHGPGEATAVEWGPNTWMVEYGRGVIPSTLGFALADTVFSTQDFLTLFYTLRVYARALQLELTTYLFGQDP

Turning to `O=C1[C@@H]2Cc3ccccc3N2C(=O)N1CCCN1CCCCC1`, the IC50 (usually the point on the concentration scale where inhibition reaches its midpoint) against Sigma 2 receptor is more than 1000 nM.

`O=C1[C@H]2Cc3ccccc3CN2C(=O)N1CCN1CCCCC1` gave an IC50 against Sigma 2 receptor of more than 1000 nM.

Turning to `O=C1[C@@H]2Cc3ccccc3CN2C(=S)N1CCN1CCCCC1`, inhibition at Sigma 2 receptor was half-maximal at 507 nM (IC50). That is a sub-micromolar value.

As to `O=C1[C@@H]2Cc3ccccc3CN2C(=O)N1CCN1CCCCC1`, the IC50 on Sigma 2 receptor was more than 1000 nM; in assay [1], 16 nM.

Compound `O=C1N(CCN2CCCCC2)C[C@@H]2Cc3ccccc3CN12` yielded an IC50 against Sigma 2 receptor of more than 1000 nM.

Consider `O=C1[C@@H]2Cc3ccccc3CN2C(=O)N1CCCN1CCCCC1`, for which the IC50 was more than 1000 nM against Sigma 2 receptor and 21.5 nM in assay [1].

Consider `c1ccc2c(c1)C[C@H]1CN(CCN3CCCCC3)CN1C2`, for which the IC50 against Sigma 2 receptor was more than 1000 nM.
